Patent publication US10370328B2, “Oxindole compounds and pharmaceutical compositions thereof” (MUSC FOUNDATION FOR RESEARCH DEVELOPMENT, priority 2015, dated 2019)

How the values were obtained:
Balb/c mice = experiment: Light model assay (light damage), eye drops, rows of photoreceptors; format: in vivo, mouse; details: 100 μM eye drops once daily; continuous light for 7 days; maximum effect
Excerpt: The light model assay is generally accepted as a model of age related macular degeneration (AMD). […] In particular, oxidative damage has been detected by immunohistochemistry, detecting the presence of oxidized and tyrosine-phosphorylated proteins as well as the upregulation of endogenous antioxidants such as thioredoxin and glutathione peroxidase.
The light model assay was used to further test the therapeutic potential of the compounds of the invention. Photoreceptors from albino animals are very sensitive to constant light, lacking the RPE pigment to protect them. […] To test the potential therapeutic efficacy, eye drops were formulated in 0.1% Myrj in 0.9% saline, applied once daily throughout the period of light exposure, and their effect assessed on the light-induced degeneration of photoreceptor cells morphologically and electrophysiologically, 10 days after the onset of the CL exposure.

rd1 mouse = experiment: Rd1 mouse model of RP (retina organ culture), rows of photoreceptors; format: cell-based; details: 10 nM; equivalent of postnatal day 21; P = 0.04; rd1 vehicle 1.81 ± 0.09
Method: For the calcium-overload in vitro, the rd1 mouse was utilized (e.g., Farber et al., 1995). […] To test the potential therapeutic efficacy, compounds were added to the culture media starting the day after the start of the culture (equivalent to postnatal day 11) and replaced every 48 hours. Effects were assessed on the degeneration of photoreceptor cells morphologically at the equivalent of postnatal day 21.

rd10 mouse = experiment: Rd10 mouse model of RP, eye drops, rows of photoreceptors; format: in vivo; details: 100 μM eye drops once daily from postnatal day 14, assessed at postnatal day 25; P < 0.005; vehicle 2.3 ± 0.23
Excerpt: To test the potential therapeutic efficacy, eye drops were formulated in 0.1% Myrj in 0.9% saline, applied once daily starting at the day of eye opening (postnatal day 14), and their effect assessed on the degeneration of photoreceptor cells morphologically at postnatal day 25.

661W or C6 cells = experiment: Metabolic Protection Assay (MTT), protection from calcium-ionophore A23187; format: cell-based; details: 1 μM ionophore, 24 h
Method: The compound 3-(4,5-Dimethylthiazol-2-yl)-2,5-diphenyltetrazolium bromide (MTT) is a tetrazolium ion that is reduced to a blue formazan dye via several families of NAD(P)H-dependent oxidoreductases. Formation of the formazan dye from MTT or other related tetrazolium dyes are commonly used as a viability assay even though, in fact, the assay is a metabolic capacity assay.
In this assay, 661W or C6 cells were maintained in DMEM supplemented with 10% serum. 100 of 70,000 cells/mL cells were seeded into each well of 96 well plates using DMEM supplemented with 5% serum. Cells were then allowed to grow to confluency for 48 hours. Representative compounds of the invention were added in 2 μL media and calcium-ionophore A23187 was then added in 1 μL for a final concentration of 1 μM and after 24 h, 20 uL of […] MTT were added to each well and the cells were incubated for another 4 h after which 100 μL of 1% SDS in 0.01 M aqueous HCl were added to each well and the plates were incubated overnight. Absorbance was measured at […] (background correction). The 1 μM ionophore A23187 caused about 50% loss in MTT signal at 24 h. Protection was calculated as the increase in absorbance of treatment groups normalized to the vehicle control.

SMILES | LD Protection (# of rows) (Balb/c mice) | rd1 protection (# of rows) (rd1 mouse) | rd10 protection (# of rows) (rd10 mouse) | loss in MTT signal (661W or C6 cells)
CCN1C(=O)C(O)(Cc2cccc3c2OCO3)c2cc(C)ccc21 (stereo not drawn) [Example 17, 3-(benzo[d][1,3]dioxol-4-ylmethyl)-1-ethyl-3-hydroxy-5-methylindolin-2-one] | (100 μM) 6.48 ± 0.13 (P < 0.001) # of rows | – | – | –
CCN1C(=O)C(Cc2cccc(OC)c2O)(OC(=O)N(C)C)c2cc(Cl)ccc21 (stereo not drawn) [Example 10, 5-chloro-1-ethyl-3-(2-hydroxy-3-methoxybenzyl)-2-oxoindolin-3-yl dimethylcarbamate] | (100 μM) 5.8 ± 0.34 (P < 0.001) # of rows | (10 nM) 2.51 ± 0.25 (P = 0.04) # of rows | (100 μM) 2.8 ± 0.48 (P < 0.005) # of rows | –
CCN1C(=O)C(Cc2cccc(OC)c2OC(=O)NCCOCCO)(OC(=O)c2ccccc2)c2cc(Cl)ccc21 (stereo not drawn) [Example 12, 5-chloro-1-ethyl-3-(2-(((2-(2-hydroxyethoxy)ethyl)carbamoyl)oxy)-3-methoxybenzyl)-2-oxoindolin-3-yl benzoate] | (100 μM) 4.87 ± 0.22 (P < 0.01) # of rows | – | – | –
CNc1ccc2oc(C[C@H]3O[C@@]4(CC[C@H]3C)O[C@H]([C@H](C)C(=O)c3ccc[nH]3)[C@H](C)C[C@H]4C)nc2c1C(=O)O [Example A23187] | – | – | – | about 50%
